PMC8956739, “A synthetic lipopeptide targeting top-priority multidrug-resistant Gram-negative pathogens” (Nature Communications, 2022)
In brackets after ≈: the same amount, converted by molar mass. Several values for one entry are separate records, joined by “and”; a condition that tells them apart may be missing. Identical values can stand only once. Residues, ends and D or L forms follow the SMILES beside them.

Key:
[1] = tested on: P. aeruginosa FADDI-PA038; assay type: cell-based, Pseudomonas aeruginosa; details: FADDI-PA038
Summary of the method: (§1)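 MICs came from broth microdilution in cation-adjusted Mueller–Hinton broth against clinical isolates. For surfactant binding, P. aeruginosa ATCC 27853 was additionally tested with 10% Survanta® (v/v, 2.5 mg/mL phospholipids) added to the polymyxin-containing broth.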

[2] = tested on: P. aeruginosa FADDI-PA025; assay type: cell-based, Pseudomonas aeruginosa; details: FADDI-PA025
Summary of the method: as §1

[3] = tested on: P. aeruginosa ATCC 27853; assay type: cell-based, Pseudomonas aeruginosa; details: ATCC 27853
Summary of the method: (§2)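 Read-out is the minimum inhibitory concentration, obtained by serially diluting compound in cation-adjusted Mueller–Hinton medium and exposing each isolate in microdilution format.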

[4] = tested on: K. pneumoniae FADDI-KP032; assay type: cell-based, Klebsiella pneumoniae; details: FADDI-KP032
Summary of the method: as §1

[5] = tested on: K. pneumoniae FADDI-KP065; assay type: cell-based, Klebsiella pneumoniae; details: FADDI-KP065
Summary of the method: as §1

[6] = tested on: Swiss mice, kidney; assay: Nephrotoxicity in mice (kidney histopathology); assay type: in vivo, mouse; details: for Kidney histopathology (SQS Score): 72 mg/kg/d subcutaneously in six divided doses every 2 h, n = 3; for Kidney histopathology, mice with the SQS score: mouse, in vivo
Summary of the method: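 Female Swiss mice (7-week-old, 22–28 g) received lipopeptides in saline either s.c. at 12 mg/kg ×6 every 2 h (total 72 mg/kg, n = 3) or i.p. at 20 or 25 mg/kg ×6 every 2 h (total 120 mg/kg, n = 6; 150 mg/kg, n = 3). Right kidney collected 20 h after last dose, fixed in 10% buffered formalin (pH 7.4), histology scored blinded.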

[7] = tested on: P. aeruginosa ATCC 27853; assay: Neutropenic mouse bloodstream infection model; assay type: in vivo; details: single IV dose 4 mg/kg; for Log10 CFU/mL blood at 4 h, Mean / Δlog10 CFU/mL blood (mean) / Log10 CFU/mL blood at 4 h, single mouse: 4 h; for Δlog10 CFU/mL blood (mean): treated minus control, mean of replicates; for Δlog10 CFU/mL blood (mean) / Log10 CFU/mL blood at 4 h, single mouse / Delta Log10 CFU/mL blood at 4 h, single mouse: 4 mg/kg; for Delta Log10 CFU/mL blood at 4 h, single mouse: treated mouse minus mean of vehicle mice
Summary of the method: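 Female Swiss mice made neutropenic with cyclophosphamide (150 mg/kg day −4, 100 mg/kg day −1), infected IV with 50 µL of 4 × 10^8 CFU/mL. Lipopeptide 4 mg/kg (free base) IV at 2 h post-inoculation, n = 3. Efficacy = Δlog10 CFU/mL blood versus saline at 4 h post-dose.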

[8] = tested on: A. baumannii FADDI-AB034; assay type: cell-based, Acinetobacter baumannii; details: FADDI-AB034
Summary of the method: as §1

[9] = tested on: A. baumannii FADDI-AB030; assay type: cell-based, Acinetobacter baumannii; details: FADDI-AB030
Summary of the method: as §1

[10] = tested on: A. baumannii ATCC 19606; assay type: cell-based, Acinetobacter baumannii; details: ATCC 19606
Summary of the method: as §2

SMILES | MIC P. aeruginosa FADDI-PA038 [1] [µg/mL] | MIC P. aeruginosa FADDI-PA025 [2] [µg/mL] | MIC P. aeruginosa ATCC 27853 [3] [µg/mL] | MIC K. pneumoniae FADDI-KP032 [4] [µg/mL] | MIC K. pneumoniae FADDI-KP065 [5] [µg/mL] | Kidney histopathology (SQS Score) [6] | Kidney histopathology, mice with the SQS score [6] | Log10 CFU/mL blood at 4 h, Mean [7] [Log10 CFU/mL blood] | Δlog10 CFU/mL blood (mean) [7] [log10 CFU/mL blood] | Log10 CFU/mL blood at 4 h, single mouse [7] | Delta Log10 CFU/mL blood at 4 h, single mouse [7] | MIC A. baumannii FADDI-AB034 [8] [µg/mL] | MIC A. baumannii FADDI-AB030 [9] [µg/mL] | MIC A. baumannii ATCC 19606 [10] [µg/mL]
CCCCCCCC(=O)N[C@@H](CCN)C(=O)N[C@H](C(=O)N[C@@H](CCN)C(=O)N[C@H]1CCNC(=O)[C@H]([C@@H](C)O)NC(=O)[C@H](CCN)NC(=O)[C@H](CCN)NC(=O)[C@H](C(C)C)NC(=O)[C@@H](CC(C)C)NC(=O)[C@H](CCN)NC1=O)[C@@H](C)O [Lipopeptide F225] (HELM PEPTIDE1{[CCCCCCCC(=O)[*:2]].[Dab].T.[Dab].[Dab].[Dab].[dL].V.[Dab].[Dab].T}$PEPTIDE1,PEPTIDE1,5:R3-11:R2$$$V2.0) | 1 (≈ 0.876 µM) | 4 (≈ 3.5 µM) | 1 (≈ 0.876 µM) | <0.125 | <0.125 | 0 (SQS 0 = no significant change (overall score, <1)) | 3/3 | 4.59 | −2.86 | 4.22 Log10 CFU/mL blood and 4.78 Log10 CFU/mL blood (2×) | -3.23 Log10 CFU/mL blood and -2.67 Log10 CFU/mL blood (2×) | 0.25 (≈ 0.219 µM) | 0.25 (≈ 0.219 µM) | 0.5 (≈ 0.438 µM)
CC[C@@H]1NC(=O)[C@@H](CC(C)C)NC(=O)[C@H](CCN)NC(=O)[C@@H](NC(=O)[C@H](CN)NC(=O)[C@@H](NC(=O)[C@H](CCN)NC(=O)c2ccc(C)cc2)[C@@H](C)O)CCNC(=O)[C@H]([C@@H](C)O)NC(=O)[C@H](CCN)NC(=O)[C@H](CCN)NC1=O [Lipopeptide F383] (HELM PEPTIDE1{[Cc1ccc(C(=O)[*:2])cc1].[Dab].T.[NC[C@H](N[*:1])C(=O)[*:2]].[Dab].[Dab].[dL].[Abu].[Dab].[Dab].T}$PEPTIDE1,PEPTIDE1,5:R3-11:R2$$$V2.0) | 1 (≈ 0.905 µM) | 2 (≈ 1.81 µM) | 0.5 (≈ 0.452 µM) | 1 (≈ 0.905 µM) | 1 (≈ 0.905 µM) | 0 (SQS 0 = no significant change (overall score, <1)) | 3/3 | 4.91 | −3.02 | 5.76 Log10 CFU/mL blood and 4.40 Log10 CFU/mL blood and 4.59 Log10 CFU/mL blood | -2.18 Log10 CFU/mL blood and -3.54 Log10 CFU/mL blood and -3.35 Log10 CFU/mL blood | 2 (≈ 1.81 µM) | 2 (≈ 1.81 µM) | 2 (≈ 1.81 µM)
CCCCCCCC(=O)N[C@@H](CCN)C(=O)N[C@H](C(=O)N[C@@H](CCN)C(=O)N[C@H]1CCNC(=O)[C@H]([C@@H](C)O)NC(=O)[C@H](CCN)NC(=O)[C@H](CCN)NC(=O)[C@H]([C@@H](C)O)NC(=O)[C@@H](Cc2ccccc2)NC(=O)[C@H](CCN)NC1=O)[C@@H](C)O [Lipopeptide F224] (HELM PEPTIDE1{[CCCCCCCC(=O)[*:2]].[Dab].T.[Dab].[Dab].[Dab].[dF].T.[Dab].[Dab].T}$PEPTIDE1,PEPTIDE1,5:R3-11:R2$$$V2.0) | 0.5 (≈ 0.425 µM) | 16 (≈ 13.6 µM) | 1 (≈ 0.849 µM) | 0.5 (≈ 0.425 µM) | <0.125 | 0 (SQS 0 = no significant change (overall score, <1)) | 3/3 | 4.07 | −3.38 | 4.08 Log10 CFU/mL blood and 4.03 Log10 CFU/mL blood and 4.10 Log10 CFU/mL blood | -3.37 Log10 CFU/mL blood and -3.42 Log10 CFU/mL blood and -3.35 Log10 CFU/mL blood | 0.5 (≈ 0.425 µM) | 0.25 (≈ 0.212 µM) | 1 (≈ 0.849 µM)
CCCCCCCC(=O)N[C@@H](CCN)C(=O)N[C@H](C(=O)N[C@@H](CCN)C(=O)N[C@H]1CCNC(=O)[C@H]([C@@H](C)O)NC(=O)[C@H](CCN)NC(=O)[C@H](CCN)NC(=O)[C@H]([C@@H](C)O)NC(=O)[C@@H](CCCC)NC(=O)[C@H](CCN)NC1=O)[C@@H](C)O [Lipopeptide F226] (HELM PEPTIDE1{[CCCCCCCC(=O)[*:2]].[Dab].T.[Dab].[Dab].[Dab].[CCCC[C@@H](N[*:1])C(=O)[*:2]].T.[Dab].[Dab].T}$PEPTIDE1,PEPTIDE1,5:R3-11:R2$$$V2.0) | 1 (≈ 0.875 µM) | 16 (≈ 14 µM) | 1 (≈ 0.875 µM) | <0.125 | <0.125 | +1 (SQS + 1 = mild damage (overall score, 1 to <15)) | 1/3 | 4.20 | −3.24 | 4.01 Log10 CFU/mL blood and 4.55 Log10 CFU/mL blood and 4.05 Log10 CFU/mL blood | -3.43 Log10 CFU/mL blood and -2.90 Log10 CFU/mL blood and -3.40 Log10 CFU/mL blood | 1 (≈ 0.875 µM) | 0.5 (≈ 0.437 µM) | 2 (≈ 1.75 µM)
CCCCCCCC(=O)N[C@@H](CCN)C(=O)N[C@H](C(=O)N[C@@H](CCN)C(=O)N[C@H]1CCNC(=O)[C@H]([C@@H](C)O)NC(=O)[C@H](CCN)NC(=O)[C@H](CCN)NC(=O)[C@H](CO)NC(=O)[C@@H](CC(C)C)NC(=O)[C@H](CCN)NC1=O)[C@@H](C)O [Lipopeptide F227] (HELM PEPTIDE1{[CCCCCCCC(=O)[*:2]].[Dab].T.[Dab].[Dab].[Dab].[dL].S.[Dab].[Dab].T}$PEPTIDE1,PEPTIDE1,5:R3-11:R2$$$V2.0) | >32 | >32 | 0.5 (≈ 0.443 µM) | 0.25 (≈ 0.221 µM) | 0.25 (≈ 0.221 µM) | 0 (SQS 0 = no significant change (overall score, <1)) | 3/3 | 6.47 | −1.04 | 6.74 Log10 CFU/mL blood and 5.57 Log10 CFU/mL blood and 7.10 Log10 CFU/mL blood | -0.77 Log10 CFU/mL blood and -1.95 Log10 CFU/mL blood and -0.41 Log10 CFU/mL blood | 4 (≈ 3.54 µM) | 4 (≈ 3.54 µM) | 8 (≈ 7.08 µM)
